{"source": "patent US20260285850A1", "about": "“SUBSTITUTED OXAZOLIDINONES AND IMIDAZOLINONES AS HERBICIDES” (FMC CORPORATION, priority 2023, published 2026)", "assay_type_in_all_cases": "in vivo", "key": {"[1]": {"test_system": "barnyardgrass (Echinochloa crus-galli)", "assay": "Test A preemergence soil spray, visual injury rating 0-100", "details": "10 days", "outline": "(§1)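 Preemergence directed soil spray or postemergence spray (2-10 cm, 1-2 leaf); loam/sand mix; compound in non-phytotoxic solvent + surfactant. Greenhouse, 10 d. Visual injury vs untreated, 0 = none, 100 = complete control.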"}, "[2]": {"test_system": "blackgrass (Alopecurus myosuroides)", "assay": "Test A preemergence soil spray, visual injury rating 0-100", "details": "10 days", "outline": "as §1"}, "corn (Zea mays) [3]": {"test_system": "corn (Zea mays)", "assay": "Test A preemergence soil spray, visual injury rating 0-100", "details": "10 days", "outline": "as §1"}, "[4]": {"test_system": "green foxtail (Setaria viridis)", "assay": "Test A preemergence soil spray, visual injury rating 0-100", "details": "10 days", "outline": "as §1"}, "kochia (Bassia scoparia) [5]": {"test_system": "kochia (Bassia scoparia)", "assay": "Test A preemergence soil spray, visual injury rating 0-100", "details": "10 days", "outline": "as §1"}, "[6]": {"test_system": "oat, wild (wild oat, Avena fatua)", "assay": "Test A preemergence soil spray, visual injury rating 0-100", "details": "10 days", "outline": "as §1"}, "[7]": {"test_system": "palmer (palmer amaranth, palmer pigweed, Amaranthus palmeri)", "assay": "Test A preemergence soil spray, visual injury rating 0-100", "details": "10 days", "outline": "as §1"}, "[8]": {"test_system": "ragweed (common ragweed, Ambrosia artemisiifolia)", "assay": "Test A preemergence soil spray, visual injury rating 0-100", "details": "10 days", "outline": "as §1"}, "[9]": {"test_system": "ryegrass, Italian (italian ryegrass, Lolium multiflorum)", "assay": "Test A preemergence soil spray, visual injury rating 0-100", "details": "10 days", "outline": "as §1"}, "soybean (Glycine max) [10]": {"test_system": "soybean (Glycine max)", "assay": "Test A preemergence soil spray, visual injury rating 0-100", "details": "10 days", "outline": "as §1"}, "[11]": {"test_system": "wheat (Triticum aestivum)", "assay": "Test A preemergence soil spray, visual injury rating 0-100", "details": "10 days", "outline": "as §1"}, "[12]": {"test_system": "barnyardgrass (Echinochloa crus-galli)", "assay": "Test A postemergence application, visual injury rating 0-100", "outline": "as §1"}, "[13]": {"test_system": "blackgrass (Alopecurus myosuroides)", "assay": "Test A postemergence application, visual injury rating 0-100", "outline": "as §1"}, "corn (Zea mays) [14]": {"test_system": "corn (Zea mays)", "assay": "Test A postemergence application, visual injury rating 0-100", "outline": "as §1"}, "[15]": {"test_system": "galium (catchweed bedstraw, Galium aparine)", "assay": "Test A postemergence application, visual injury rating 0-100", "outline": "as §1"}, "[16]": {"test_system": "green foxtail (Setaria viridis)", "assay": "Test A postemergence application, visual injury rating 0-100", "outline": "as §1"}, "[17]": {"test_system": "horseweed (Erigeron canadensis)", "assay": "Test A postemergence application, visual injury rating 0-100", "outline": "as §1"}, "kochia (Bassia scoparia) [18]": {"test_system": "kochia (Bassia scoparia)", "assay": "Test A postemergence application, visual injury rating 0-100", "outline": "as §1"}, "[19]": {"test_system": "oat, wild (wild oat, Avena fatua)", "assay": "Test A postemergence application, visual injury rating 0-100", "outline": "as §1"}, "[20]": {"test_system": "palmer (palmer amaranth, palmer pigweed, Amaranthus palmeri)", "assay": "Test A postemergence application, visual injury rating 0-100", "outline": "as §1"}, "[21]": {"test_system": "ragweed (common ragweed, Ambrosia artemisiifolia)", "assay": "Test A postemergence application, visual injury rating 0-100", "outline": "as §1"}, "[22]": {"test_system": "ryegrass, Italian (italian ryegrass, Lolium multiflorum)", "assay": "Test A postemergence application, visual injury rating 0-100", "outline": "as §1"}, "soybean (Glycine max) [23]": {"test_system": "soybean (Glycine max)", "assay": "Test A postemergence application, visual injury rating 0-100", "outline": "as §1"}, "[24]": {"test_system": "wheat (Triticum aestivum)", "assay": "Test A postemergence application, visual injury rating 0-100", "outline": "as §1"}, "[25]": {"test_system": "barnyardgrass (Echinochloa crusgalli)", "assay": "Test B flooded paddy test, visual plant response rating 0-100", "details": "250 g ai/ha, Flood, applied to paddy water, evaluated after 13 days", "outline": "(§2)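 Treatment occurs at the 2-leaf stage by adding compound to floodwater standing 3 cm above the soil, a level kept for the whole test. Plants stay in the greenhouse 13 days before visual comparison with controls.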"}, "[26]": {"test_system": "ducksalad (Heteranthera limosa)", "assay": "Test B flooded paddy test, visual plant response rating 0-100", "details": "250 g ai/ha, Flood, applied to paddy water, evaluated after 13 days", "outline": "as §2"}, "rice (Oryza sativa)": {"test_system": "rice (Oryza sativa)", "assay": "Test B flooded paddy test, visual plant response rating 0-100", "details": "250 g ai/ha, Flood, applied to paddy water, evaluated after 13 days", "outline": "as §2"}, "[27]": {"test_system": "sedge, umbrella (small-flower umbrella sedge, Cyperus difformis)", "assay": "Test B flooded paddy test, visual plant response rating 0-100", "details": "250 g ai/ha, Flood, applied to paddy water, evaluated after 13 days", "outline": "as §2"}, "[28]": {"details": "62 g ai/ha, 0 = no effect, 100 = complete control"}, "[29]": {"details": "62 g ai/ha, postemergence, 10 days, 0 = no effect, 100 = complete control"}, "[30]": {"details": "Postemergence, 16 g ai/ha, greenhouse 10 days, 0 no effect, 100 complete control"}}}
{"smiles": "CC1(C(=O)NC2CC=C(C(=O)NS(C)(=O)=O)C2)CN(c2cc(F)cc(F)c2)C(=O)O1", "note": "(racemic) [Compound 103]", "values": [{"measurement": "Barnyardgrass plant response rating", "setting": "[1]; 16 g ai/ha, 0 to 100 scale", "value": 0}, {"measurement": "Barnyardgrass plant response rating (0-100)", "setting": "[1]; [28]", "value": 10}, {"measurement": "Blackgrass plant response rating", "setting": "[2]; 16 g ai/ha, 0 to 100 scale", "value": 0}, {"measurement": "Blackgrass plant response rating (0-100)", "setting": "[2]; [28]", "value": 0}, {"measurement": "Corn plant response rating", "setting": "corn (Zea mays) [3]; 16 g ai/ha, 0 to 100 scale", "value": 0}, {"measurement": "Corn plant response rating (0-100)", "setting": "corn (Zea mays) [3]; [28]", "value": 10}, {"measurement": "Foxtail, Green plant response rating", "setting": "[4]; 16 g ai/ha, 0 to 100 scale", "value": 20}, {"measurement": "Foxtail, Green plant response rating (0-100)", "setting": "[4]; [28]", "value": 40}, {"measurement": "Kochia plant response rating", "setting": "kochia (Bassia scoparia) [5]; 16 g ai/ha, 0 to 100 scale", "value": 0}, {"measurement": "Kochia plant response rating (0-100)", "setting": "kochia (Bassia scoparia) [5]; [28]", "value": 50}, {"measurement": "Oat, Wild plant response rating", "setting": "[6]; 16 g ai/ha, 0 to 100 scale", "value": 0}, {"measurement": "Oat, Wild plant response rating (0-100)", "setting": "[6]; [28]", "value": 0}, {"measurement": "Pigweed, Palmer plant response rating", "setting": "[7]; 16 g ai/ha, 0 to 100 scale", "value": 0}, {"measurement": "Pigweed, Palmer plant response rating (0-100)", "setting": "[7]; [28]", "value": 80}, {"measurement": "Ragweed plant response rating", "setting": "[8]; 16 g ai/ha, 0 to 100 scale", "value": 0}, {"measurement": "Ragweed plant response rating (0-100)", "setting": "[8]; [28]", "value": 0}, {"measurement": "Ryegrass, Italian plant response rating", "setting": "[9]; 16 g ai/ha, 0 to 100 scale", "value": 0}, {"measurement": "Ryegrass, Italian plant response rating (0-100)", "setting": "[9]; [28]", "value": 40}, {"measurement": "Soybean plant response rating", "setting": "soybean (Glycine max) [10]; 16 g ai/ha, 0 to 100 scale", "value": 20}, {"measurement": "Soybean plant response rating (0-100)", "setting": "soybean (Glycine max) [10]; [28]", "value": 20}, {"measurement": "Wheat plant response rating", "setting": "[11]; 16 g ai/ha, 0 to 100 scale", "value": 0}, {"measurement": "Wheat plant response rating (0-100)", "setting": "[11]; [28]", "value": 60}, {"measurement": "Barnyardgrass plant response rating (0-100)", "setting": "[12]; [29]", "value": 100}, {"measurement": "Barnyardgrass plant response rating (0 to 100 scale)", "setting": "[12]; [30]", "value": 50}, {"measurement": "Blackgrass plant response rating (0-100)", "setting": "[13]; [29]", "value": 40}, {"measurement": "Blackgrass plant response rating (0 to 100 scale)", "setting": "[13]; [30]", "value": 0}, {"measurement": "Corn plant response rating (0-100)", "setting": "corn (Zea mays) [14]; [29]", "value": 80}, {"measurement": "Corn plant response rating (0 to 100 scale)", "setting": "corn (Zea mays) [14]; [30]", "value": 10}, {"measurement": "Galium plant response rating (0-100)", "setting": "[15]; [29]", "value": 60}, {"measurement": "Galium plant response rating (0 to 100 scale)", "setting": "[15]; [30]", "value": 10}, {"measurement": "Foxtail, Green plant response rating (0-100)", "setting": "[16]; [29]", "value": 90}, {"measurement": "Foxtail, Green plant response rating (0 to 100 scale)", "setting": "[16]; [30]", "value": 0}, {"measurement": "Horseweed plant response rating (0-100)", "setting": "[17]; [29]", "value": 0}, {"measurement": "Horseweed plant response rating (0 to 100 scale)", "setting": "[17]; [30]", "value": 0}, {"measurement": "Kochia plant response rating (0-100)", "setting": "kochia (Bassia scoparia) [18]; [29]", "value": 80}, {"measurement": "Kochia plant response rating (0 to 100 scale)", "setting": "kochia (Bassia scoparia) [18]; [30]", "value": 20}, {"measurement": "Oat, Wild plant response rating (0-100)", "setting": "[19]; [29]", "value": 20}, {"measurement": "Oat, Wild plant response rating (0 to 100 scale)", "setting": "[19]; [30]", "value": 0}, {"measurement": "Pigweed, Palmer plant response rating (0-100)", "setting": "[20]; [29]", "value": 70}, {"measurement": "Pigweed, Palmer plant response rating (0 to 100 scale)", "setting": "[20]; [30]", "value": 60}, {"measurement": "Ragweed plant response rating (0-100)", "setting": "[21]; [29]", "value": 30}, {"measurement": "Ragweed plant response rating (0 to 100 scale)", "setting": "[21]; [30]", "value": 10}, {"measurement": "Ryegrass, Italian plant response rating (0-100)", "setting": "[22]; [29]", "value": 30}, {"measurement": "Ryegrass, Italian plant response rating (0 to 100 scale)", "setting": "[22]; [30]", "value": 0}, {"measurement": "Soybean plant response rating (0-100)", "setting": "soybean (Glycine max) [23]; [29]", "value": 40}, {"measurement": "Soybean plant response rating (0 to 100 scale)", "setting": "soybean (Glycine max) [23]; [30]", "value": 10}, {"measurement": "Wheat plant response rating (0-100)", "setting": "[24]; [29]", "value": 70}, {"measurement": "Wheat plant response rating (0 to 100 scale)", "setting": "[24]; [30]", "value": 20}, {"measurement": "Plant response rating, Barnyardgrass (0 to 100 scale, 0 is no effect and 100 is complete control)", "setting": "[25]", "value": 0}, {"measurement": "Plant response rating, Ducksalad (0 to 100 scale, 0 is no effect and 100 is complete control)", "setting": "[26]", "value": 0}, {"measurement": "Plant response rating, Rice (0 to 100 scale, 0 is no effect and 100 is complete control)", "setting": "rice (Oryza sativa)", "value": 0}, {"measurement": "Plant response rating, Sedge, Umbrella (0 to 100 scale, 0 is no effect and 100 is complete control)", "setting": "[27]", "value": 0}]}
